The values below come from patent US20220372171A1, “ANTIBODY DIRECTED AGAINST TENOFOVIR AND DERIVATIVES THEREOF” (priority 2019, published 2022).

A short description of data set [1]: Urine TFV concentration by ELISA, Partners PrEP Study cohort. The class given is in vivo, human. Conditions: Partners PrEP cohort on TDF or TDF/FTC; IQR=500-90,000 ng/mL. The procedure:
(§1) It was hypothesized that TFV concentrations in urine, measured via an immunoassay, would correlate to those in plasma, the gold standard for short-term PrEP adherence in clinical trials, and associated with protection from HIV. To test this hypothesis, TFV levels were measured in stored urine samples collected from a randomly sampled cohort of HIV-negative men and women from the active PrEP arms in the Partners PrEP Study using enzyme-linked immunosorbent assay (ELISA) (lower limit of quantification [LLOQ] of 1000 ng/mL). Date-matched plasma TFV concentrations were measured using liquid chromatography-tandem mass spectrometry (LC-MS/MS) with an LLOQ of 0.31 ng/mL. Using the same cohort and a purposive sample of all HIV seroconverters on PrEP, a case-cohort analysis was conducted to assess the association between recent urine TFV level ≥1500 ng/mL, a threshold previously shown to accurately predict recent PrEP dosing, and protection from HIV. Weighted Cox proportional hazard models were used and adjusted for age, sex, and sexual behavior.
On the technique in general: An ELISA detects its analyte on a solid surface through an enzyme-linked reagent.

Data set [2] in a line: Plasma TFV concentration by LC-MS/MS, Partners PrEP Study cohort. The class given is in vivo, human. Particulars: Partners PrEP cohort on TDF or TDF/FTC; IQR=1.6-103.0 ng/mL. As for the experimental part: as §1
Data set [3] has as its system HIV. As to the kind of experiment: Nested case-control analysis: TFV level and protection from HIV acquisition (Partners PrEP Study). In kind it is in vivo. As for the experimental part:
as §1
To assess the association between urine TFV concentrations ≥1,500 ng/mL and protection from HIV acquisition, a nested case-control analysis was conducted. Case samples collected on the date of the first evidence of HIV infection (i.e., first positive test for HIV-1 RNA) were matched with control samples collected at the same study visit month. […]

In data set [4] the test system is HIV. Description: Urine TFV levels by immunoassay and HIV seroconversion (iPrEx-OLE). The class given is in vivo. The procedure: PrEP was provided to 1,085 men who have sex with men (MSM) and 140 transwomen (Grant et al., Lancet Infect Dis, 14: 820-829 (2014)). Urine was collected every 12 weeks and dried blood spots (DBS) were prepared 4 and 8 weeks after PrEP initiation, and then every 12 weeks. DBS assays for TFV-diphosphate (TFV-DP) and FTC-triphosphate (FTC-TP) were analyzed at all visits for participants who seroconverted in the iPrEx open-label extension (iPrEx-OLE) study and in a random subset of those who remained HIV-negative (Grant et al., supra). Hair samples for TFV and FTC were collected every 12 weeks for all who provided opt-in consent and analyzed among seroconverters and a random subset of those who remained HIV-negative (Gandhi et al., Lancet HIV, 3: e521-e528 (2016)). Participants who qualified for the correlation analysis required sample availability from all three biomatrices (urine, DBS, hair) at one or more visits over the duration of iPrEx-OLE (median 72 weeks). Additional urine samples from seroconverters (n=10) were included in the specific analysis looking at the association between urine TFV levels and seroconversion. All individuals in the study provided informed consent, including for sample storage and further testing, and the institutional review board from each study site approved the study.
The upper limit of quantification for the immunoassay was 50,000 ng/mL. Using previously described and validated LC-MS/MS-based methods, TFV-DP and FTC-TP concentration were measured in DBS (Zheng et al., J Pharm Biomed Anal, 122: 16-20 (2016)), and FTC and TFV concentrations were measured in hair (Liu et al., PLoS One, 9: e83736 (2014)).
For the seroconversion analysis, urine TFV concentrations via the immunoassay were compared using Kruskal-Wallis' test among individuals at the seroconversion visit; prior to the seroconversion visit; and those who remained HIV-negative. Receiver operating curves (ROC) were analyzed to identify two urine TFV cut-points and compared with the outcome of future HIV seroconversion. […] The sensitivity and specificity of the urine assay at an undetectable urine TFV level (<1,000 ng/mL) was compared with two levels of inadequate adherence defined by TFV-DP concentrations in DBS: the limit of quantification (<3.5 fmol/punch) and very low adherence (<350 fmol/punch, estimated average weekly adherence of <2 tablets/week) (Grant et al., Lancet Infect Dis, 14: 820-829 (2014)); and Anderson et al., Antimicrob Agents Chemother, 62: e01710-e01717 (2018)). The lower limit of detection for the urine assay (1,000 ng/mL) was selected as the optimal single cut-off based on analysis of ROC curves and prior data examining LC-MS/MS-based methods to quantify TFV levels in urine (Lalley-Chareczko et al., J Acquir Immune Defic Syndr, 79: 173-178 (2018)).

Data set [5] relates to HIV. Particulars: daily doses; subjects at high risk through sexual transmission and drug use; cited from earlier work.

Take `C[C@H](Cn1cnc2c(N)ncnc21)OCP(=O)(O)O` [TFV, tenofovir]: the “median TFV concentration in urine via ELISA” value in data set [1] is recorded as 37,500 ng/mL. Also, the “median TFV concentration in plasma via LC-MS/MS” value in data set [2] was found to be 65.4 ng/mL. In addition, in the data set on HIV [3] (plasma TFV >40 ng/mL by LC-MS/MS, 95% CI=54-96%), the “reduction in HIV risk associated with plasma TFV >40 ng/mL” value was determined as 87%. In addition, in the data set on HIV [3] (urine TFV ≥1500 ng/mL by immunoassay, unadjusted, TDF/FTC or TDF-only PrEP), the “% HIV risk reduction (95% CI)” value was 73% (36 to 89%). In addition, the “urinary TFV level at seroconversion” value in the data set on HIV [4] (at seroconversion (n=9), P<0.001, undetectable = <1,000 ng/mL) is given as “undetectable”. For the same molecule, the “association of decreasing strata of urine TFV levels with HIV seroconversion” value with HIV [4] (samples prior to seroconversion visit, P=0.03) was “associated with future HIV seroconversion”. Besides, the “median urinary TFV level” value with HIV [4] (those who eventually seroconverted (n=11), interquartile range 1,000-12,500) is given as 5,500 ng/mL; in the data set on HIV [4] (those who remained HIV negative (n=105), interquartile range 1,000-45,000), 15,000 ng/mL. For the same molecule, the “reduced incidence of HIV” value with HIV [5] was 48.9%.
